The source of these data is US11702401B2, “Compounds and methods of use” (Medivation Technologies LLC, priority 2014, dated 2023).

SMILES strings stand for the structures.

By Tmax is commonly meant the time at which the peak concentration occurs.

Data set [1] in a line: Plasma and brain concentrations in male mice at 0.5 and 1 h. It is filed as in vivo.
Data set [2] in a line: Pharmacokinetics and bioavailability in male mice, oral single dose. It is filed as in vivo. Particulars: oral 10 mg/kg.

For the compound `CC(C)c1cnc(-c2cc(Cl)ccc2F)cc1Nc1ccncc1C(=O)NC(CO)CO` [compound 22, 4-[[2-(5-chloro-2-fluoro-phenyl)-5-isopropyl-4-pyridyl]amino]-N-[2-hydroxy-1-(hydroxymethyl)ethyl]pyridine-3-carboxamide], the “Brain Concentration” value came to 7 nM in data set [1] (IV, 0.5 h); 5 nM in data set [1] (IV, 1 h); 20 nM in data set [1] (PO, 0.5 h); 15 nM in data set [1] (PO, 1 h). Besides, the “Plasma Concentration” value in data set [1] (IV, 0.5 h) was determined as 1690 nM; in data set [1] (IV, 1 h) it was 967 nM; in data set [1] (PO, 0.5 h), 7070 nM; in data set [1] (PO, 1 h) it was 3530 nM.
In the case of `C[C@H](O)CNC(=O)c1cnccc1Nc1cc(-c2cc(Cl)ccc2F)ncc1N(C)C` (single isomer, unassigned) [16a], the “Brain Concentration” value in data set [1] (IV, 0.5 h) was found to be 48 nM; in data set [1] (IV, 1 h), 19 nM; in data set [1] (PO, 0.5 h), 48 nM; in data set [1] (PO, 1 h), 25 nM. Besides, the “Plasma Concentration” value was 3040 nM in data set [1] (IV, 0.5 h); 1230 nM in data set [1] (IV, 1 h); 3420 nM in data set [1] (PO, 0.5 h); 1690 nM in data set [1] (PO, 1 h). In addition, in data set [2], the AUClast is 7.50 µM·h. In addition, the Tmax in data set [2] is 30 min.
